Patent US20020165168A1, “USE OF SUGAR DERIVATIVES AS ANTIMICROBIAL, ANTIMYCOTIC AND/OR ANTIVIRAL ACTIVE SUBSTANCES” (priority 1995, published 2002)

Test system: Corynebacterium xerosis
Test: action against Corynebacterium xerosis
Conditions: qualitative statement, no method or data given

Compound | action against Corynebacterium xerosis
CCCCCCCCOC1O[C@H](CO)[C@@H](O)[C@H](O)[C@H]1O (stereo partly drawn) [octylglucopyranoside] | very good action
CCCCCCCCCCCCO[C@@H]1O[C@H](CO)[C@@H](O)[C@H](O)[C@H]1O [β-D-dodecylglucopyranoside] | very good action
CCCCCCCCCO[C@@H]1O[C@H](CO)[C@@H](O)[C@H](O)[C@H]1O [β-D-nonylglucopyranoside] | very good action
